# Test results published in paper PMC10247784, “Physiological activation of human and mouse bitter taste receptors by bile acids” (Communications Biology, 2023).
# Several values for one entry are separate records, joined by “and”; a condition that tells them apart may be missing. Identical values can stand only once.
# Biological target: T1, human TAS2R1 (Homo sapiens, UniProt Q9NYW7)
# T1 construct: expressed in transfected cells; host or cells: HEK293T-Gα16gust44
# T1 sequence (Q9NYW7 1-299): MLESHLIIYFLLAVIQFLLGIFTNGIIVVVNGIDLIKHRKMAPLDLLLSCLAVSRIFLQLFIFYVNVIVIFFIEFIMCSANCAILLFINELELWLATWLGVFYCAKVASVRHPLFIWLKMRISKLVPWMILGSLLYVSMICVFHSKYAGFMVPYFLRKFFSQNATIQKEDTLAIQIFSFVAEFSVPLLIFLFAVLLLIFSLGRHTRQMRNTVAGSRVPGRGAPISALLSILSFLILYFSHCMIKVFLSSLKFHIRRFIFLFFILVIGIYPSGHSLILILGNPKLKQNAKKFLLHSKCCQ
# Assay: Calcium imaging assay (FLIPR), HEK293T-Gα16gust44 cells transfected with human TAS2R1
# Assay type: cell-based
# In short: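 Calcium responses via FLIPR in receptor-transfected HEK293T-Gα16gust44 cells (Fluo-4-AM, 2.5 mM probenecid), after mock-signal subtraction and normalization to baseline and buffer (ΔF/F). Threshold concentration is the lowest dose differing from mock cells at p < 0.01 (Student's t-test), from three biological replicates in duplicate.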
compound,measurement,setting,value
"C[C@H](CCC(=O)NCC(=O)O)[C@H]1CC[C@H]2[C@@H]3[C@H](O)C[C@@H]4C[C@H](O)CC[C@]4(C)[C@H]3C[C@H](O)[C@]12C [Glycocholic Acid, glycocholic acid]",Efficacy = maximal amplitude (ΔF/F),"TAS2R1, bile acids, mean",0.1325
same,"Efficacy (maximal amplitude ΔF/F), individual data points","TAS2R1, bile acids, single replicates, listed as GCA",0.1311 and 0.1247 and 0.1416
same,RLU,Time 0 s (second time grid),0 RLU
same,RLU,Time 2 s,1.34 RLU
same,RLU,Time 4 s,-10.9328 RLU
same,RLU,Time 6 s,-2.093 RLU
same,RLU,Time 8 s,-18.797 RLU
same,RLU,Time 12 s,-1.765 RLU
same,RLU,Time 14 s,-6.3 RLU
same,RLU,Time 16 s,4.111 RLU
same,RLU,Time 18 s,11.3452 RLU
same,RLU,Time 18.781 s,-8.381 RLU
same,RLU,Time 20.781 s,-65.4734 RLU
same,RLU,Time 22.781 s,-29.3432 RLU
same,RLU,Time 24.781 s,49.9011 RLU
same,RLU,Time 26.781 s,96.1968 RLU
same,RLU,Time 28.781 s,184.074 RLU
same,RLU,Time 30.781 s,256.685 RLU
same,RLU,Time 32.781 s,311.082 RLU
same,RLU,Time 34.781 s,379.127 RLU
same,RLU,Time 36.781 s,406.227 RLU
same,RLU,Time 38.781 s,484.171 RLU
same,RLU,Time 40.781 s,488.749 RLU
same,RLU,Time 42.781 s,562.235 RLU
same,RLU,Time 44.781 s,571.006 RLU
same,RLU,Time 46.781 s,594.154 RLU
same,RLU,Time 48.781 s,570.694 RLU
same,RLU,Time 50.781 s,587.34 RLU
same,RLU,Time 52.781 s,583.343 RLU
same,RLU,Time 54.781 s,607.705 RLU
same,RLU,Time 56.781 s,600.065 RLU
same,RLU,Time 58.781 s,617.139 RLU
same,RLU,Time 60.781 s,617.101 RLU
same,RLU,Time 62.781 s,619.569 RLU
same,RLU,Time 64.781 s,627.557 RLU
same,RLU,Time 66.781 s,602.719 RLU
same,RLU,Time 68.781 s,631.839 RLU
same,RLU,Time 70.781 s,609.358 RLU
same,RLU,Time 72.781 s,606.454 RLU
same,RLU,Time 74.781 s,603.445 RLU
same,RLU,Time 76.781 s,621.396 RLU
same,RLU,Time 78.781 s,618.749 RLU
same,RLU,Time 80.781 s,605.728 RLU
same,RLU,Time 82.781 s,588.632 RLU
same,RLU,Time 84.781 s,592.001 RLU
same,RLU,Time 86.781 s,573.367 RLU
same,RLU,Time 88.781 s,587.481 RLU
same,RLU,Time 90.781 s,582.427 RLU
same,RLU,Time 92.781 s,543.758 RLU
same,RLU,Time 94.781 s,568.088 RLU
same,RLU,Time 96.781 s,550.308 RLU
same,RLU,Time 98.781 s,566.578 RLU
same,RLU,Time 100.781 s,550.017 RLU
same,RLU,Time 102.781 s,549.55 RLU
same,RLU,Time 104.781 s,541.673 RLU
same,RLU,Time 106.781 s,534.917 RLU
same,RLU,Time 108.781 s,501.47 RLU
same,RLU,Time 110.781 s,477.052 RLU
same,RLU,Time 112.781 s,487.765 RLU
same,RLU,Time 114.781 s,493.52 RLU
same,RLU,Time 116.781 s,450.802 RLU
same,RLU,Time 118.781 s,454.358 RLU
same,RLU,Time 120.781 s,451.439 RLU
same,RLU,Time 122.781 s,430.145 RLU
same,RLU,Time 124.781 s,453.415 RLU
same,RLU,Time 126.781 s,442.632 RLU
same,RLU,Time 128.781 s,400.74 RLU
same,RLU,Time 130.781 s,403.872 RLU
same,RLU,Time 132.781 s,393.75 RLU
same,RLU,Time 134.781 s,397.711 RLU
same,RLU,Time 136.781 s,397.074 RLU
same,RLU,Time 137.547 s,371.152 RLU
same,RLU,Time 143.547 s,348.952 RLU
same,RLU,Time 149.547 s,319.38 RLU
same,RLU,Time 155.547 s,291.839 RLU
same,RLU,Time 161.547 s,291.362 RLU
same,RLU,Time 167.547 s,251.037 RLU
same,RLU,Time 173.547 s,217.997 RLU
same,RLU,Time 179.547 s,213.168 RLU
same,RLU,Time 185.547 s,202.093 RLU
same,RLU,Time 191.547 s,176.088 RLU
same,RLU,Time 197.547 s,167.876 RLU
same,RLU,Time 203.547 s,164.283 RLU
same,RLU,Time 209.547 s,146.788 RLU
same,RLU,Time 215.547 s,144.843 RLU
same,RLU,Time 221.547 s,126.114 RLU
same,RLU,Time 227.547 s,89.1702 RLU
same,RLU,Time 233.547 s,107.472 RLU
same,RLU,Time 239.547 s,82.2731 RLU
same,RLU,Time 245.547 s,57.4201 RLU
same,RLU,Time 293.547 s,58.9267 RLU
same,RLU,Time 299.547 s,40.6004 RLU
same,RLU,"calcium trace, sheet TAS2R1, Time 305.547 s",58.5113 RLU
same,RLU,"calcium trace, sheet TAS2R1, Time 311.547 s",53.2069 RLU
same,RLU,"calcium trace, sheet TAS2R1, Time 317.547 s",43.3091 RLU
same,RLU,"calcium trace, sheet TAS2R1, Time 323.547 s",43.6147 RLU
same,RLU,"calcium trace, sheet TAS2R1, Time 329.547 s",33.081 RLU
same,RLU,"calcium trace, sheet TAS2R1, Time 335.547 s",47.1496 RLU
same,RLU,"calcium trace, sheet TAS2R1, Time 341.547 s",32.1596 RLU
same,RLU,"calcium trace, sheet TAS2R1, Time 347.547 s",48.6454 RLU
same,RLU,"calcium trace, sheet TAS2R1, Time 353.547 s",51.461 RLU
same,RLU,"calcium trace, sheet TAS2R1, Time 359.547 s",49.6251 RLU
same,Δ F/F,"conc. 0,01 mM, TAS2R1",0.004283
same,Δ F/F,"conc. 0,1 mM, TAS2R1",0.04907
same,Δ F/F,"conc. 0,03 mM, TAS2R1",0.009584
same,Δ F/F,"conc. 0,3 mM, TAS2R1",0.1325
same,Δ F/F,"conc. 0,001 mM, TAS2R1",0.006338
same,Δ F/F,"conc. 0,003 mM, TAS2R1",-0.001187
same,Activation threshold concentration TAS2R1,lowest concentration with significantly increased fluorescence vs empty vector (p < 0.01),100 µM and 100.00 µM
